Where a name gives a salt, the structure may show the parent alone. Read-outs that look alike come from different tables or passages of the source.
How the values were obtained:
[1] = molecular target: T1, Recombinant human M3 receptor (Homo sapiens, UniProt P20309); test: biochemical; type: binding
T1 construct: expressed in transfected cells; host or cells: CHO-K1 cells (membranes)

[2] = system: Isolated Guinea Pig Trachea; test: Potency in isolated guinea pig trachea, inhibition of EFS-stimulated contraction; settings: Cavia porcellus, electrical field stimulation
Method: Experiments were carried out at 37° C. in modified Krebs-Henseleit solution, (114 mM NaCl, 15 mM NaHCO3, 1 mM MgSO4, 1.3 mM CaCl2, 4.7 mM KCl, 11.5 mM glucose and 1.2 mM KH2PO4, pH 7.4) gassed with 95% O2/5% CO2. Indomethacin was added to a final concentration of 3 μM
Tracheae were removed from adult male Dunkin Hartley Guinea pigs and dissected free of adherent tissue before being cut open longitudinally in a line opposite the muscle. Individual strips of 2-3 cartilage rings in width were cut and suspended using cotton thread in 10 mL water-jacketed organ baths and attached to a force transducer ensuring that the tissue is located between two platinum electrodes. Responses were recorded via a MP100W/Acknowledge data acquisition system connected to a PC. Tissues were equilibrated for one hour under a resting tone of 1 g and were then subjected to electrical field stimulation at a frequency of 80 Hz with a pulse width of 0.1 ms, a unipolar pulse, triggered every 2 minutes. A “voltage-response” curve was generated for each tissue and a submaximal voltage then applied to every piece of tissue according to its own response to voltage. Tissues were washed with Krebs solution and allowed to stabilize under stimulation prior to addition of test compound. Concentration response curves were obtained by a cumulative addition of test compound in half-log increments. Once the response to each addition had reached a plateau the next addition was made. Percentage inhibition of EFS-stimulated contraction is calculated for each concentration of each compound added and dose response curves constructed using Graphpad Prism software and the IC50 calculated for each compound.

[3] = M3, SPA format assay, read-out: Ki in the SPA format assay
[4] = SPA format, read-out: M3 Ki (SPA format)

T1 sequence (P20309 whole entry): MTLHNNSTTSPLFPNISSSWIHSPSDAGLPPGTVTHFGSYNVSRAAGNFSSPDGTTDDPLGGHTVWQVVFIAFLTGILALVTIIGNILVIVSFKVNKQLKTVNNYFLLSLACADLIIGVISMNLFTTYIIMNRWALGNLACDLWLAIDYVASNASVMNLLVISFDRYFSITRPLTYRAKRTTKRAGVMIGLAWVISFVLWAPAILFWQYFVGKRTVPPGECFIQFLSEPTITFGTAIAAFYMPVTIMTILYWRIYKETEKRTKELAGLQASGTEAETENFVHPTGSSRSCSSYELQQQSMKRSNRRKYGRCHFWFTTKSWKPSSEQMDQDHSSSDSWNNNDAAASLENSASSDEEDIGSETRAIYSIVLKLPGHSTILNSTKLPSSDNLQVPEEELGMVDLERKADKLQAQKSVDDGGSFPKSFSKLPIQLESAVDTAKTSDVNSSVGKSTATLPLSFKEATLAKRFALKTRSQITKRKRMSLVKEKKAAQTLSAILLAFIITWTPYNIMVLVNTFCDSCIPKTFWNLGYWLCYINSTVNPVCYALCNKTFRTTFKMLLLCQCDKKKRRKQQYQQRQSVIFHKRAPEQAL

OC(c1ccccc1)(c1cc(C[N+]23CCC(CC2)[C@@H](Sc2ccccc2)C3)on1)C1CCCCC1 (single isomer, unassigned) [Example 70, 1-[3-(Cyclohexyl-hydroxy-phenyl-methyl)-isoxazol-5-ylmethyl]-3-phenylsulfanyl-1-azonia-bicyclo[2.2.2]octane; chloride]
Ki [1, 3]: 650 pM
Ki [1, 4]: < 5000 pM
IC50 [2]: 2800 pM

O[C@](c1ccccc1)(c1ncc(C[N+]23CCC(CC2)[C@@H](COc2ccccc2)C3)o1)C1CCCCC1 [Example 25, (R)-1-[2-((R)—Cyclohexyl-hydroxy-phenyl-methyl)-oxazol-5-ylmethyl]-3-phenoxymethyl-1-azonia-bicyclo[2.2.2]octane; bromide]
Ki [1, 3]: 130 pM
Ki [1, 4]: < 5000 pM
IC50 [2]: 1900 pM

O[C@](c1ccccc1)(c1ncc(C[N+]23CCC(CC2)[C@@H](OCc2ccccc2)C3)o1)C1CCCC1 [Example 42, (R)-3-benzyloxy-1-[2-((R)-cyclopentyl-hydroxy-phenyl-methyl)-oxazol-5-ylmethyl]-1-azonia-bicyclo[2.2.2]octane; formate]
Ki [1, 3]: 90 pM
Ki [1, 4]: < 5000 pM
IC50 [2]: 700 pM

OC(c1ccccc1)(c1ccccc1)c1noc(C[N+]23CCC(CC2)[C@@H](Oc2ccc(F)cc2)C3)n1 [Example 95, (R)-3-(4-Fluoro-phenoxy)-1-[3-(hydroxy-diphenyl-methyl)-[1,2,4]oxadiazol-5-ylmethyl]-1-azonia-bicyclo[2.2.2]octane; chloride]
Ki [1, 3]: 170 pM
Ki [1, 4]: < 5000 pM
IC50 [2]: 600 pM

Source: patent US20100056565A1, “Heterocyclic Derivatives as M3 Muscarinic Receptors” (priority 2007, published 2010)
